Assay results taken from the CheMixHub viscosity set.
± gives the uncertainty stated by the source.

Experiment: xn = mol fraction of the nth substance listed

COC(=O)OC + CCO
101.3 kPa
Details	viscosity [mPa·s]
293.15 K, x1 = 0.0498	1.07 ± 0.052
293.15 K, x1 = 0.0978	0.974 ± 0.048
293.15 K, x1 = 0.176	0.853 ± 0.043
293.15 K, x1 = 0.2928	0.74 ± 0.038
293.15 K, x1 = 0.4053	0.675 ± 0.035
293.15 K, x1 = 0.4981	0.646 ± 0.034
293.15 K, x1 = 0.5982	0.625 ± 0.033
293.15 K, x1 = 0.6962	0.613 ± 0.033
293.15 K, x1 = 0.8024	0.609 ± 0.033
293.15 K, x1 = 0.8894	0.607 ± 0.033
293.15 K, x1 = 0.9516	0.618 ± 0.033
298.15 K, x1 = 0.0598	0.966 ± 0.048
298.15 K, x1 = 0.095	0.897 ± 0.045
298.15 K, x1 = 0.1692	0.786 ± 0.04
298.15 K, x1 = 0.2725	0.685 ± 0.036
298.15 K, x1 = 0.3854	0.625 ± 0.033
298.15 K, x1 = 0.4778	0.594 ± 0.032
298.15 K, x1 = 0.5686	0.573 ± 0.031
298.15 K, x1 = 0.6777	0.561 ± 0.031
298.15 K, x1 = 0.7915	0.555 ± 0.03
298.15 K, x1 = 0.8775	0.556 ± 0.03
298.15 K, x1 = 0.9366	0.565 ± 0.031
303.15 K, x1 = 0.0673	0.832 ± 0.042
303.15 K, x1 = 0.1142	0.752 ± 0.039
303.15 K, x1 = 0.2249	0.627 ± 0.033
303.15 K, x1 = 0.2894	0.588 ± 0.032
303.15 K, x1 = 0.3906	0.541 ± 0.03
303.15 K, x1 = 0.4848	0.521 ± 0.029
303.15 K, x1 = 0.5996	0.512 ± 0.028
303.15 K, x1 = 0.6931	0.513 ± 0.028
303.15 K, x1 = 0.8038	0.512 ± 0.028
303.15 K, x1 = 0.9072	0.52 ± 0.029
303.15 K, x1 = 0.9462	0.527 ± 0.029
313.15 K, x1 = 0.0504	0.731 ± 0.038
313.15 K, x1 = 0.0934	0.662 ± 0.035
313.15 K, x1 = 0.2082	0.535 ± 0.029
313.15 K, x1 = 0.3087	0.472 ± 0.027
313.15 K, x1 = 0.393	0.45 ± 0.026
313.15 K, x1 = 0.5026	0.44 ± 0.025
313.15 K, x1 = 0.6011	0.438 ± 0.025
313.15 K, x1 = 0.7052	0.44 ± 0.025
313.15 K, x1 = 0.7968	0.445 ± 0.026
313.15 K, x1 = 0.9075	0.463 ± 0.026
313.15 K, x1 = 0.9507	0.475 ± 0.027

COCCOCCOC + O
Details	viscosity [mPa·s]
298.15 K, 101 kPa, x1 = 0.021	1.36 ± 0.41
298.15 K, 101 kPa, x1 = 0.04611	2.03 ± 0.61
298.15 K, 101 kPa, x1 = 0.08173	2.84 ± 0.85
298.15 K, 101 kPa, x1 = 0.135	3.11 ± 0.94
298.15 K, 101.32 kPa, x1 = 0.0104	1.16 ± 0.007
298.15 K, 101.32 kPa, x1 = 0.0199	1.362 ± 0.008
298.15 K, 101.32 kPa, x1 = 0.0677	2.567 ± 0.018
298.15 K, 101.32 kPa, x1 = 0.1	2.959 ± 0.021
298.15 K, 101.32 kPa, x1 = 0.1492	3.175 ± 0.023
298.15 K, 101.32 kPa, x1 = 0.1978	2.936 ± 0.021
298.15 K, 101.32 kPa, x1 = 0.2959	2.342 ± 0.016
298.15 K, 101.32 kPa, x1 = 0.4011	1.881 ± 0.012
298.15 K, 101.32 kPa, x1 = 0.4988	1.552 ± 0.01
298.15 K, 101.32 kPa, x1 = 0.577	1.398 ± 0.009
298.15 K, 101.32 kPa, x1 = 0.8569	1.084 ± 0.006
298.15 K, 101.33 kPa, x1 = 0.0091	1.139 ± 0.009
298.15 K, 101.33 kPa, x1 = 0.0188	1.403 ± 0.011
298.15 K, 101.33 kPa, x1 = 0.0295	1.691 ± 0.013
298.15 K, 101.33 kPa, x1 = 0.051	2.246 ± 0.017
298.15 K, 101.33 kPa, x1 = 0.0854	2.993 ± 0.022
298.15 K, 101.33 kPa, x1 = 0.1194	3.328 ± 0.024
298.15 K, 101.33 kPa, x1 = 0.1604	3.232 ± 0.023
298.15 K, 101.33 kPa, x1 = 0.2099	2.993 ± 0.021
298.15 K, 101.33 kPa, x1 = 0.2597	2.661 ± 0.019
298.15 K, 101.33 kPa, x1 = 0.3028	2.389 ± 0.017
298.15 K, 101.33 kPa, x1 = 0.3461	2.153 ± 0.015
298.15 K, 101.33 kPa, x1 = 0.3843	1.982 ± 0.014
298.15 K, 101.33 kPa, x1 = 0.4327	1.791 ± 0.013
298.15 K, 101.33 kPa, x1 = 0.4651	1.691 ± 0.012
298.15 K, 101.33 kPa, x1 = 0.5196	1.536 ± 0.011
298.15 K, 101.33 kPa, x1 = 0.608	1.356 ± 0.009
298.15 K, 101.33 kPa, x1 = 0.659	1.272 ± 0.009
298.15 K, 101.33 kPa, x1 = 0.7695	1.145 ± 0.008
298.15 K, 101.33 kPa, x1 = 0.8171	1.103 ± 0.008
298.15 K, 101.33 kPa, x1 = 0.8712	1.066 ± 0.007
298.15 K, 101.33 kPa, x1 = 0.9453	1.024 ± 0.007
303.15 K, 101 kPa, x1 = 0.021	1.19 ± 0.36
303.15 K, 101 kPa, x1 = 0.04611	1.71 ± 0.52
303.15 K, 101 kPa, x1 = 0.08173	2.35 ± 0.71
303.15 K, 101 kPa, x1 = 0.135	2.62 ± 0.79
313.15 K, 101 kPa, x1 = 0.021	0.94 ± 0.28
313.15 K, 101 kPa, x1 = 0.04611	1.27 ± 0.38
313.15 K, 101 kPa, x1 = 0.08173	1.75 ± 0.53
313.15 K, 101 kPa, x1 = 0.135	1.93 ± 0.58
323.15 K, 101 kPa, x1 = 0.021	0.78 ± 0.24
323.15 K, 101 kPa, x1 = 0.04611	1.01 ± 0.3
323.15 K, 101 kPa, x1 = 0.08173	1.34 ± 0.4
323.15 K, 101 kPa, x1 = 0.135	1.46 ± 0.44

Oc1ccccc1 + Clc1ccccc1
293.15 K, 101 kPa
Details	viscosity [mPa·s]
x1 = 0.0584	0.825 ± 0.008
x1 = 0.115	0.888 ± 0.009
x1 = 0.2493	1.122 ± 0.011
x1 = 0.3435	1.274 ± 0.013
x1 = 0.4323	1.673 ± 0.017
x1 = 0.5436	2.218 ± 0.022
x1 = 0.6243	2.748 ± 0.028
x1 = 0.7492	4.07 ± 0.043
x1 = 0.84	5.555 ± 0.061

Oc1ccccc1 + C1COCCO1
308.15 K, 101 kPa
Details	viscosity [mPa·s]
x2 = 0.1	4.829 ± 0.059
x2 = 0.2	4.471 ± 0.055
x2 = 0.3	3.888 ± 0.048
x2 = 0.4	3.179 ± 0.039
x2 = 0.5	2.568 ± 0.032
x2 = 0.6	2.062 ± 0.026
x2 = 0.7	1.664 ± 0.021
x2 = 0.8	1.371 ± 0.017
x2 = 0.9	1.141 ± 0.015
